Results: PMC5041153, “Presumed LRP1-targeting transport peptide delivers β-secretase inhibitor to neurons in vitro with limited efficiency” (Scientific Reports, 2016)
Where a SMILES comes first, the peptide text is derived from it. [ ]: non-standard residue; d: D form. Sta = CC(C)C[C@H](N)[C@@H](O)CC(=O)O

What was measured:
[1] = target: T1, BACE1 (Homo sapiens, UniProt P56817); experiment: Activity test on human neurons: Aβ38, Aβ40, Aβ42 in supernatant by ELISA; format: cell-based; conditions: 6 h, swAPP SH-SY5Y cells
T1 construct: SH-SY5Y cells overexpressing either Swedish-mutant APP or the isoforms APP695 or APP751 were seeded in 24-well plates; endogenous in cells; host or cells: SH-SY5Y cells overexpressing Swedish-mutant APP (also APP695 or APP751 lines)
Method: Figure 5 BACE1-inhibitory activity of the bioconjugates. […] The content of Aβ peptides was measured in the cells’ supernatant upon treatment and normalized setting the values of control DMSO-treated cells as 100% (Mean ± SD, n = 3–6). […] GAPDH was used as loading control. (b) Inhibitory activity of the ANG-SI bioconjugate at a range of concentrations (5–100 μM) after 6 h incubation with swAPP cells (Mean ± SD, n = 3–6). *P ≤ 0.05, **P ≤ 0.01, ***P ≤ 0.001, ****P ≤ 0.0001, one-way ANOVA followed by Dunnet test.
Supernatant from the tissue culture plates was then collected in low protein-binding tubes and analyzed by enzyme-linked immunosorbent assay with the Multi-Spot Assay System from Meso Scale Discovery (Rockville, MD) detecting human Aβ38, Aβ40 and Aβ42 peptides (#K15200E,) following manual’s instructions. The values obtained for the different conjugates varied in intensity (Aβ42 ~70,000 RU, Aβ40 ~400,000 RU and Aβ38 ~4,000 RU) and were normalized for the basal Aβ level detected in the supernatant of DMSO-treated cells, which was set as 100%.

[2] = system: wild type SH-SY5Y cells; format: cell-based, human; conditions: 5 μM, continuous exposure over 72 h, RTCA xCELLigence
Method: Figure S7 – Activity of the TAT-SI and TRP-SI bioconjugates on swAPP-overexpressing SH-SY5Y cells. […]
μM in FBS-supplemented medium. Mean ± SD (n=3). **P<0.01 and ****P<0.0001, one-way ANOVA followed […]
Figure S8 – Cytotoxicity of the peptides. Cell growth was monitored over 72 h using wild type SH-SY5Y cells during continuous exposure to the peptides at 5 μM using a Real-Time Cell Analysis (RTCA) xCELLigence system from Roche (Rotkreuz, Switzerland). Briefly, cells were seeded on the E-plates (10,000 cells/well) and after one day the medium was replaced by fresh medium containing the corresponding peptide and the cells were grown for 72 h. Cell growth was monitored with the RTCA system over 72 h during continuous exposure to the peptides at 5 μM. […]

[3] = target: T2, purified BACE1 enzyme (Homo sapiens, UniProt P56817); experiment: Activity test against purified BACE1 enzyme (cell-free, SensoLyte 520 β-secretase assay kit); format: biochemical; conditions: cell-free assay of purified BACE1; mean of n = 3, except ANG-PEG-SI n = 2; CI 95% printed alongside; read-out: IC50 (concentration at which 50% of relative cleavage was achieved)
T2 construct: purchased AnaSpec (Fremont, CA)
Method: Figure 1 Peptidic bioconjugates and their activity on purified BACE1 enzyme. (a) Scheme of the main bioconjugates used in this study with their corresponding sequences.
A range of concentrations of the different bioconjugates were tested in a cell-free assay of purified BACE1 enzyme using the SensoLyte 520 β–secretase assay kit from AnaSpec (Fremont, CA) following manufacturer’s guidelines.

[4] = system: SH-SY5Y cells; experiment: Cellular internalization of TAMRA-labeled peptides by flow cytometry; format: cell-based, human; conditions: FBS-supplemented medium, n = 3
Method: Figure 2 Cellular internalization of peptidic bioconjugates in SH-SY5Y neurons. Mean cell fluorescence intensity was measured by flow cytometry after continuous incubation with the fluorescent TAMRA-labeled bioconjugates in FBS-supplemented medium for increasing time periods. Values were normalized against the fluorescence background of untreated cells and expressed as fold increase. (a) Internalization kinetics of ANG-SI, ANG or SI at 1 μM (mean ± SD, n = 3). (b) Energy-dependence of the internalization of ANG-SI at 37 °C and 4 °C (mean ± SD, n = 3). ***P ≤ 0.001 and ****P ≤ 0.0001, unpaired Student’s t test. (c) Confocal images of cells incubated with ANG-SI, ANG or SI (red) for 1 h. Cells’ perimeter and nuclei have been delineated for reference. Scale bar 10 μm. […]
To study the uptake of the ANG conjugates, cells were incubated with the different fluorescently labeled peptides at 1 μM in FBS-supplemented medium for increasing periods of time, after which they were washed according to previously established protocols[50] and harvested with trypsin for their analysis by flow cytometry. The mean fluorescence values obtained from the analysis were normalized against the background fluorescence of untreated cells and were presented as fold-increase of this intensity. […]

[5] = system: SH-SY5Y wild-type cells; conditions: 30 min pre-treatment, 1 h incubation, flow cytometry, n = 3; for decrease of uptake on treatment with EIPA: 60 μM EIPA, 3 μM peptide or 0.75 mg/mL 70 kDa dextran; for decrease of uptake in the presence of Dynasore: 100 μM Dynasore, serum-free medium, 3 μM peptide or 5 μg/mL transferrin
Method: Cell fluorescence distributions of cells treated with (a) 100 μM Dynasore or (b) 60 μM EIPA. […] Background cell fluorescence of only inhibitor-treated cells is shown (grey). Distributions shown are representative examples of three independent experiments. (c,d) Mean cell fluorescence intensity of the distributions shown in (a) or (b), respectively. The markers transferrin (Trf) and Dextran are shown for reference. (e) Frequency of cells in each of the two subpopulations (Negative or Positive) present upon treatment with ANG, as defined by the gates shown in the fluorescence distribution in (b). Numerical data are represented as mean ± SD (n = 3). *P ≤ 0.05 and **P ≤ 0.01, one-way ANOVA followed by Dunnet test.
For the pharmacological inhibition of endocytosis, we used Dynasore to inhibit clathrin-mediated endocytosis and 5-(N-Ethyl-N-isopropyl)amiloride (EIPA) to block macropinocytosis. […] To verify their inhibitory effects, we used fluorescently labeled human transferrin and 70 kDa dextran, respectively. […] Dynasore-treated cells were washed thrice with acidic wash buffer (0.2 M acetic acid and 0.2 M NaCl) and once with PBS prior to being harvested with trypsin for their analysis by flow cytometry. EIPA-treated cells were washed once with PBS, twice with acetate wash buffer (0.1 M sodium acetate and 0.05 M NaCl, pH 5.5) for 5 min each, and finally once more with PBS prior to being harvested with trypsin for their analysis by flow cytometry.

T1 sequence (P56817 46-501): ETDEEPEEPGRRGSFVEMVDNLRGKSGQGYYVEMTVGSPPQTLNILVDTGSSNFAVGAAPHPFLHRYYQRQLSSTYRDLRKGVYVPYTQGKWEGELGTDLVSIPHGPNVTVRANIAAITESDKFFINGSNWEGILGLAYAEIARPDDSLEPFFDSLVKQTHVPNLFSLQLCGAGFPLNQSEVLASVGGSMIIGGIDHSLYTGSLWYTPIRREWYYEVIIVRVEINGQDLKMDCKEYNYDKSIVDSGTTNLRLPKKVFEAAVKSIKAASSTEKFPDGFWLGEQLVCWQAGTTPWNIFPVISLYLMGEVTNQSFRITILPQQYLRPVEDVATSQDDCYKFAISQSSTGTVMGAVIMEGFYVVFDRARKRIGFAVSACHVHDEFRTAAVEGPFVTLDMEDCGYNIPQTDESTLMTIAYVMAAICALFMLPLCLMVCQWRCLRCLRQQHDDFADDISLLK
T2 sequence (P56817 46-501): as above

C[C@@]1(c2cc(-c3cncnc3)c(F)cc2F)CCSC(N)=N1 [LY2811376, reference compound]
decrease of the levels of Aβ peptides 38, 40 and 42 in supernatant ([1]; 5 μM, FBS-supplemented medium, normalized to DMSO-treated cells = 100%, n = 3–6): > 90%

CC[C@H](C)[C@H](NC(=O)[C@H](CCCCN)NC(=O)[C@H](CCCCN)NC(=O)[C@H](C)NC(=O)[C@H](CC(C)C)NC(=O)[C@H](C)NC(=O)[C@H](C)NC(=O)[C@H](CC(C)C)NC(=O)[C@H](C)NC(=O)[C@H](CCCCN)NC(=O)[C@H](CC(C)C)NC(=O)[C@H](CC(N)=O)NC(=O)[C@@H](NC(=O)[C@H](CCCCN)NC(=O)CNC(=O)[C@H](CC(C)C)NC(=O)[C@H](CC(C)C)NC(=O)[C@H](Cc1ccc(O)cc1)NC(=O)CNC(=O)[C@H](C)NC(=O)[C@H](CO)NC(=O)[C@H](CC(N)=O)NC(=O)[C@H](CC(C)C)NC(=O)[C@@H](NC(=O)[C@H](Cc1c[nH]c2ccccc12)NC(=O)CNC(=O)[C@H](Cc1ccccc1)NC(=O)[C@H](CCC(=O)O)NC(=O)[C@H](C)NC(=O)[C@@H](NC(=O)C[C@H](O)[C@H](CC(C)C)NC(=O)[C@H](CC(N)=O)NC(=O)[C@@H](NC(=O)[C@@H](N)CCC(=O)O)C(C)C)C(C)C)[C@@H](C)O)[C@@H](C)CC)C(=O)N[C@@H](CC(C)C)C(=O)O [TRP-SI] (H-EVN[Sta]VAEFGWTLNSAGYLLGKINLKALAALAKKIL-OH)
cytotoxicity (cell growth) [2]: cytotoxic effect

EVN-statine-VAEF-PEG-TFFYGGSRGKRNNFKTEEY [ANG-PEG-SI, ANG and SI joined by an inert poly(ethylene glycol) linker]
IC50 [3]: 87.1 nM
effect on Aβ peptide levels (cellular activity) ([1]; 5 μM, FBS-supplemented medium, normalized to DMSO-treated cells): did not show cellular activity

EVN-statine-VAEFTFFYGGSRGKRNNFKTEEY (N-terminal EVN-statine) [ANG-SI]
internalization into cells (mean cell fluorescence intensity) ([4]; TAMRA-labeled peptide, 1 μM, up to 5 h continuous incubation, 37 °C): taken up by cells
internalization at 4 °C instead of 37 °C (energy dependence) ([4]; TAMRA-labeled, 1 h pre-incubation at 4 °C): significantly decreased
decrease in the enzymatic activity of BACE1 ([1]; concentrations five times higher than 5 μM, n = 3–6): ~ 25%
decrease in the enzymatic activity of BACE1 ([1]; concentrations twenty times higher than 5 μM, n = 3–6): ~ 60%
decrease of uptake on treatment with EIPA [5]: 50%
decrease of uptake in the presence of Dynasore [5]: 20%

dextran [reference compound]
decrease of uptake on treatment with EIPA [5]: 50%

transferrin: fluorescently labeled human transferrin, clathrin-mediated endocytosis marker [reference compound]
decrease of uptake in the presence of Dynasore [5]: ~ 35%
